From paper PMC9405102, “Targeted Modification and Structure-Activity Study of GL-29, an Analogue of the Antimicrobial Peptide Palustrin-2ISb” (Antibiotics, 2022)
Read-outs that look alike come from different tables or passages of the source. Where no end group is shown, it is not given here.

Experiments:
[1] = tested on: C. albicans (ATCC CRM 10231); format: cell-based, Candida albicans
Protocol: (§1) The antimicrobial activity of the peptides was determined through the minimum inhibitory concentrations (MICs) and the minimum bactericidal concentration (MBCs) using the broth-dilution method in a 96-well plate, as described in the previous study. Six bacteria, including the Gram-positive bacteria, S. aureus (ATCC CRM 6538), MRSA (ATCC CRM 12493) and E. faecalis (NCTC 12697), the Gram-negative bacteria, E. coli (ATCC CRM 8739), K. pneumoniae (ATCC CRM 43816) and P. aeruginosa (ATCC CRM 9027), the yeast, C. albicans (ATCC CRM 10231) and clinical isolates, S. aureus (B042 V2E1 A), MRSA (B038 V1S1 A), E. coli (ATCC BAA-2340) and K. pneumoniae (ATCC BAA-1705) were used in these assays to evaluate the antimicrobial potency of the two peptides by determining their MICs and MBCs. All bacteria were cultured in MHB and the yeast, C. albicans was cultured in YPD broth overnight. Then, the microorganisms were sub-cultured and diluted to the final concentration of 2 × 10^5 CFU/mL to 5 × 10^5 CFU/mL. The Norfloxacin and amphotericin B were used as positive controls for the bacteria and yeast, respectively. The assay was repeated three times, with five replicates at each time.

[2] = tested on: K. pneumoniae (ATCC CRM 43816); format: cell-based, Klebsiella pneumoniae
Protocol: as §1

[3] = tested on: K. pneumoniae (ATCC BAA-1705); format: cell-based, Klebsiella pneumoniae
Protocol: as §1

[4] = tested on: P. aeruginosa (ATCC CRM 9027); format: cell-based, Pseudomonas aeruginosa
Protocol: (§2) The MBIC and MBEC assays were performed to measure the inhibition and eradication of bacterial biofilm in the presence of different concentrations of peptides. Gram-positive bacteria were inoculated in Luria–Bertani (LB) broth at 37 °C overnight whereas Gram-negative bacteria were inoculated in tryptic soy broth (TSB), and then sub-cultured until reaching the logarithmic growth phase by measuring the OD values at a wavelength of 550nm. For the MBIC assay, 99 µL of diluted bacterial suspension (5 × 10^5 CFU/mL) was mixed with 1 µL of prepared peptide solutions in the wells of a round-bottomed 96-well plate, achieving the final concentrations from 512 to 1 µM, and then incubated at 37 °C for 24 h in a shaking incubator at 200 revolutions per minute (rpm). After this, the plate was washed twice by PBS and fixed with methanol for 30 min. For MBEC assay, 100 µL of diluted bacterial suspension (5 × 10^5 CFU/mL) was seeded into a round-bottomed 96-well plate and incubated at 37 °C for 24 h in a shaking incubator at 200 rpm to obtain mature biofilm. After this, plates were washed twice by PBS and incubated with different concentrations of peptide solution from 512 to 1 µM at 37 °C for 24 h. Afterwards, the plate was washed twice with PBS and fixed with methanol for 30 min. Then, both MBIC and MBEC plates were stained by 130 μL of 0.1% (g/v) crystal violet solutions for 30 min and washed with PBS until no apparent staining was observed. Evaporating crystal violet stains were dissolved by 33% (v/v) acetic acid, and the absorbance values were measured by a Synergy HT Microplate Reader (BioTek, Minneapolis, MN, USA) set to 595 nm. The minimum concentration that inhibited the formation of biofilm was defined when compared to the negative control group, as the MBIC. The minimum concentration that eradicated the biofilm was defined, when compared to the negative control group, as the MBEC. The biofilm assays were performed in triplicate.

[5] = tested on: P. aeruginosa (ATCC CRM 9027); format: cell-based, Pseudomonas aeruginosa; remark: listed apart in the source
Protocol: as §1

E. coli (ATCC CRM 8739) [6] = format: cell-based, Escherichia coli
Protocol: as §2

[7] = tested on: K. pneumoniae (ATCC CRM 43816); format: cell-based, Klebsiella pneumoniae; remark: listed apart in the source
Protocol: as §2

E. faecalis (NCTC 12697) [8] = format: cell-based, Enterococcus faecalis
Protocol: as §2

MRSA (B038 V1S1 A) = format: cell-based, methicillin-resistant S. aureus
Protocol: as §1

MRSA (ATCC CRM 12493) [9] = format: cell-based, methicillin-resistant S. aureus
Protocol: as §1

S. aureus (B042 V2E1 A) = format: cell-based, Staphylococcus aureus
Protocol: as §1

[10] = tested on: S. aureus (ATCC CRM 6538); format: cell-based, Staphylococcus aureus
Protocol: as §1

E. coli (ATCC CRM 8739) [11] = format: cell-based, Escherichia coli; remark: listed apart in the source
Protocol: as §1

E. coli (ATCC BAA-2340) = format: cell-based, Escherichia coli
Protocol: as §1

[12] = tested on: S. aureus (ATCC CRM 6538); format: cell-based, Staphylococcus aureus; remark: listed apart in the source
Protocol: as §2

MRSA (ATCC CRM 12493) [13] = format: cell-based, methicillin-resistant S. aureus; remark: listed apart in the source
Protocol: as §2

E. faecalis (NCTC 12697) [14] = format: cell-based, Enterococcus faecalis; remark: listed apart in the source
Protocol: as §1

[15] = KPC-producing resistant strain K. pneumoniae (ATCC BAA-1705)
[16] = clinical isolated strain MRSA (B038 V1S1 A)
[17] = clinical isolated strain S. aureus (B042 V2E1 A)
[18] = KPC-producing resistant strain E. coli (ATCC BAA-2340)

VNVLDKIR-NH2 [VN-8, VNVLDKIR-NH2]
>512 µM: MBC ([1]; C. albicans (ATCC CRM 10231)) | MIC ([1]; C. albicans (ATCC CRM 10231)) | MBC ([2]; K. pneumoniae (ATCC CRM 43816)) | MIC ([2]; K. pneumoniae (ATCC CRM 43816)) | MBC [3, 15] | MIC [3, 15] | MBEC ([4]; biofilm eradication, P. aeruginosa (ATCC CRM 9027)) | MBIC ([4]; biofilm formation, P. aeruginosa (ATCC CRM 9027)) | MBC ([5]; P. aeruginosa (ATCC CRM 9027)) | MIC ([5]; P. aeruginosa (ATCC CRM 9027)) | MBEC (E. coli (ATCC CRM 8739) [6]; biofilm eradication, E. coli (ATCC CRM 8739)) | MBIC (E. coli (ATCC CRM 8739) [6]; biofilm formation, E. coli (ATCC CRM 8739)) | MBEC ([7]; biofilm eradication, K. pneumoniae (ATCC CRM 43816)) | MBIC ([7]; biofilm formation, K. pneumoniae (ATCC CRM 43816)) | MBEC (E. faecalis (NCTC 12697) [8]; biofilm eradication, E. faecalis (NCTC 12697)) | MBIC (E. faecalis (NCTC 12697) [8]; biofilm formation, E. faecalis (NCTC 12697)) | MBC (MRSA (B038 V1S1 A); [16]) | MIC (MRSA (B038 V1S1 A); [16]) | MBC (MRSA (ATCC CRM 12493) [9]; MRSA (ATCC CRM 12493)) | MIC (MRSA (ATCC CRM 12493) [9]; MRSA (ATCC CRM 12493)) | MBC (S. aureus (B042 V2E1 A); [17]) | MIC (S. aureus (B042 V2E1 A); [17]) | MBC ([10]; S. aureus (ATCC CRM 6538)) | MIC ([10]; S. aureus (ATCC CRM 6538)) | MBC (E. coli (ATCC CRM 8739) [11]; E. coli (ATCC CRM 8739)) | MIC (E. coli (ATCC CRM 8739) [11]; E. coli (ATCC CRM 8739)) | MBC (E. coli (ATCC BAA-2340); [18]) | MIC (E. coli (ATCC BAA-2340); [18]) | MBEC ([12]; biofilm eradication, S. aureus (ATCC CRM 6538)) | MBIC ([12]; biofilm formation, S. aureus (ATCC CRM 6538)) | MBEC (MRSA (ATCC CRM 12493) [13]; biofilm eradication, MRSA (ATCC CRM 12493)) | MBIC (MRSA (ATCC CRM 12493) [13]; biofilm formation, MRSA (ATCC CRM 12493)) | MBC (E. faecalis (NCTC 12697) [14]; E. faecalis (NCTC 12697)) | MIC (E. faecalis (NCTC 12697) [14]; E. faecalis (NCTC 12697))

LFVNVLDKIR-NH2 [LF-10, LFVNVLDKIR-NH2]
>512 µM: MBC ([1]; ATCC CRM 10231) | MIC ([1]; ATCC CRM 10231) | MBC ([2]; ATCC CRM 43816) | MIC ([2]; ATCC CRM 43816) | MBC ([3]; ATCC BAA-1705) | MIC ([3]; ATCC BAA-1705) | MBEC ([4]; ATCC CRM 9027, 24 h) | MBIC ([4]; ATCC CRM 9027, 24 h) | MBC ([5]; ATCC CRM 9027) | MIC ([5]; ATCC CRM 9027) | MBEC (E. coli (ATCC CRM 8739) [6]; ATCC CRM 8739, 24 h) | MBIC (E. coli (ATCC CRM 8739) [6]; ATCC CRM 8739, 24 h) | MBEC ([7]; ATCC CRM 43816, 24 h) | MBIC ([7]; ATCC CRM 43816, 24 h) | MBEC (E. faecalis (NCTC 12697) [8]; NCTC 12697, 24 h) | MBIC (E. faecalis (NCTC 12697) [8]; NCTC 12697, 24 h) | MBC (MRSA (B038 V1S1 A); B038 V1S1 A) | MIC (MRSA (B038 V1S1 A); B038 V1S1 A) | MBC (MRSA (ATCC CRM 12493) [9]; ATCC CRM 12493) | MIC (MRSA (ATCC CRM 12493) [9]; ATCC CRM 12493) | MBC (S. aureus (B042 V2E1 A); B042 V2E1 A) | MIC (S. aureus (B042 V2E1 A); B042 V2E1 A) | MBC ([10]; ATCC CRM 6538) | MIC ([10]; ATCC CRM 6538) | MBC (E. coli (ATCC CRM 8739) [11]; ATCC CRM 8739) | MIC (E. coli (ATCC CRM 8739) [11]; ATCC CRM 8739) | MBC (E. coli (ATCC BAA-2340); ATCC BAA-2340) | MIC (E. coli (ATCC BAA-2340); ATCC BAA-2340) | MBEC ([12]; ATCC CRM 6538, 24 h) | MBIC ([12]; ATCC CRM 6538, 24 h) | MBEC (MRSA (ATCC CRM 12493) [13]; ATCC CRM 12493, 24 h) | MBIC (MRSA (ATCC CRM 12493) [13]; ATCC CRM 12493, 24 h) | MBC (E. faecalis (NCTC 12697) [14]; NCTC 12697) | MIC (E. faecalis (NCTC 12697) [14]; NCTC 12697)
